EC50, IC50 and outcome data for 73 molecules are collected here from PubChem BioAssay AID179 (DTP/NCI, 2004).

The structures appear in SMILES notation. The source made the active and inactive calls.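 How the source made its calls: active means compounds giving half or more protection of infected cells from virus-caused growth loss, again on retest; inactive means the rest.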

The experiment deals with CEM cells HIV-1 protection, formazan growth assay. The experiment is described as follows: NCI AIDS Antiviral Assay. Particulars: for IC50: measured here: growth of uninfected CEM cells. In a few lines: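 Five concentrations of each compound were applied to infected and uninfected human CEM cells. Protection from HIV-1 was judged from growth measured with a soluble formazan assay.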

By EC50 is commonly meant the midpoint of the concentration-response curve. By IC50 is commonly meant the midpoint of a concentration-inhibition curve. High values mean lower potency, low ones higher potency. Take `CN1CCN(CCSc2nccc(-c3cc4ccccc4s3)n2)CC1`: the EC50 was above 126 µM and the concentration for half-maximal inhibition (IC50) was 31.6 µM.
Taken in the same sequence, the figures for `COc1ccc2c3ccc4c(c3n(C)c2c1)C(=O)C=CC4=O` were above 3.55 µM and above 3.55 µM.
In the same order, the values of `Nc1nc(=S)ss1` are above 200 µM and 155 µM.
With `Cc1cc(=O)n(-c2ccccc2)c(=O)o1`, the outcome was inactive.
As to `COC(=O)C1[C@H](C(=O)OC)C1(Br)CBr` (stereo not given in full), the EC50 was above 200 µM and the IC50 was 97.7 µM.
On to `COc1ccc(-c2onc(-c3c(C)cc(C)cc3C)c2C2=NCCN2)cc1`, for which the EC50 was above 72.4 µM and the IC50 was above 72.4 µM.
With `Cc1nc(C(N)=O)c(N)n1CCN1CCN(C(=O)CCCCCCCCCCNC2N=CNc3nc[nH]c32)CC1` (stereo not given), the result was inactive.
With `CC(=O)C(=[N+]=[N-])C(=O)NCC#N`, the EC50 was above 200 µM and the IC50 is above 200 µM.
Regarding `O=C(O)CC(O)(c1ccccc1C(=O)O)c1cccc2ccccc12` (stereo not given), the outcome was inactive.
For `O=C(c1ccccc1)n1c2ccc(Br)cc2c2nc3ccccc3nc21`, the EC50 is above 50.1 µM and the IC50 is above 50.1 µM.
Turning to `CC1CCN(CCC(=O)CC(c2ccccc2)c2c(O)c3ccccc3oc2=O)CC1` (stereo not given), the EC50 is above 97.7 µM and the IC50 was found to be 57.5 µM.
On to `Cc1cccc(C)c1NC(=O)CCc1nnc2s/c(=C\c3ccc(N(C)C)cc3)c(=O)n12`, for which the EC50 was above 1.7 µM and the IC50 is above 1.7 µM.
`c1ccc(CN2C3C4N(Cc5ccccc5)C2C2N(Cc5ccccc5)C(C(N2Cc2ccccc2)N4Cc2ccccc2)N3Cc2ccccc2)cc1`: the EC50 is above 100 µM and the IC50 was above 100 µM.
On to `CCOc1ccccc1NC(=O)CCc1nc(=S)[nH][nH]1`, for which the EC50 was above 851 µM and the IC50 is 316 µM.
In the same order, the values of `Cc1ccc(C)n1N1CCOCC1` are above 200 µM and 115 µM.
As for `COc1cc(C2SCC(=O)N2c2ccc(-n3c(-c4ccccc4)nc4ccccc4c3=O)cc2)cc(OC)c1OC` (stereo not given), the EC50 is above 200 µM and the IC50 was found to be 178 µM.
Turning to `O=[N+]([O-])c1cc([N+](=O)[O-])c2no[n+]([O-])c2c1Nc1ccccc1`, the EC50 was above 56.2 µM and the IC50 was above 56.2 µM.
Consider `O=C(Nc1ccccc1)N1CC2(CN1)CNN(C(=O)Nc1ccccc1)C2`, for which the EC50 was above 182 µM and the IC50 is above 182 µM.
As for `CC(C)(C)C1CC[C@H](O)[C@H]([C@H](O)CC2CC(=O)N(c3ccccc3)C(=O)C2)C1` (stereo not given in full), the EC50 was above 200 µM and the IC50 is above 200 µM.
As for `N#CN=C1C=CC(=C(C#N)C#N)C=C1`, the outcome was inactive.
With `COCn1c(C)c(C)c2c(=O)oc(=O)[nH]c21`, the EC50 was above 200 µM and the IC50 is above 200 µM.
As to `Brc1ccc2c(c1)[C@H]1CCc3c([nH]c4ccccc34)[C@H]1N2`, the EC50 was above 200 µM and the IC50 is 25.7 µM.
In the same order, the values of `C[n+]1ccc(-c2nc(-c3cc[n+](C)cc3)nc(-c3cc[n+](C)cc3)n2)cc1` are above 200 µM and 77.6 µM.
On to `O=[N+]([O-])c1cccc(C2=NN(c3ccccc3)C3c4cc(Br)ccc4OCC23)c1` (stereo not given), for which the EC50 is above 11.5 µM and the IC50 was above 11.5 µM.
As to `Cc1ccc(S(=O)(=O)n2c3c(c4ccccc42)CCN2C[C@H]([C@H](C)Br)CC[C@@H]32)cc1`, the EC50 is above 200 µM and the IC50 is 42.7 µM.
Taken in the same sequence, the figures for `Cc1nc2c(N)ncnc2o1` were above 9.55 µM and above 9.55 µM.
In the case of `COC1=C(C)C(=O)C(=O)c2c(C)ccnc21`, the result was inactive.
Consider `O=C1C(c2ccccc2)C2C=CC(C2)N1O` (stereo not given), for which the EC50 is above 200 µM and the IC50 was above 200 µM.
Regarding `CNC(=O)/C(C#N)=C(\N)N1CCCC1`, the EC50 is above 200 µM and the IC50 is above 200 µM.
On to `CCOC(=O)C1(O)Nc2ncncc2N(C)C1=O` (stereo not given), for which the EC50 was above 200 µM and the IC50 is above 200 µM.
On to `O=C(Nc1nc2ncn(CCI)c2c(=O)[nH]1)c1ccccc1`, for which the EC50 was above 63.1 µM and the IC50 is above 63.1 µM.
For `CC1CC[P+](c2ccccc2)(c2ccccc2)c2c1ccc1ccccc21` (stereo not given), the EC50 was above 17.8 µM and the 50% inhibitory concentration (IC50) was 0.741 µM.
Turning to `Nc1cnn(C2OC(CO)C(F)C2F)c(=O)n1` (stereo not given), the EC50 is above 363 µM and the IC50 is above 363 µM.
With `O=C(O)/C(=C/c1c(O)ccc2ccccc12)c1csc(-c2nc(/C(=C\c3c(O)ccc4ccccc34)C(=O)O)cs2)n1`, the EC50 is above 43.7 µM and the IC50 stood at 23.4 µM.
As for `COc1ccc(C(=O)C(c2ccc(OC)cc2)C2(O)C(=O)Nc3c(Cl)cc(Cl)cc32)cc1` (stereo not given), the EC50 is above 39.8 µM and the IC50 is above 39.8 µM.
Take `CCCNC(C#N)c1ccc(C(C#N)NCCC)cc1` (stereo not given): the EC50 was above 200 µM and the IC50 came out at 38.9 µM.
As to `O=C1C=C(O)C(=Cc2c(O)cc(O)cc2O)C(O)=C1`, the result was inactive.
For `C=C(CCCCCOCOCCOC)[Si](C)(C)C`, the EC50 was above 26.3 µM and the half-maximal inhibitory concentration (IC50) was above 26.3 µM.
For `CN(C)c1ccc(/C=C(\C#N)c2cccc(Cl)c2)cc1`, the EC50 is above 200 µM and the IC50 is 0.0631 µM.
`C=C1C2CCC3(CCC4C5(C)CCCC4(C=[N+](CCO)C5)C3C2)C1O` (stereo not given): the outcome was inactive.
In the case of `Cc1ccc2nc(N/N=C/c3ccc(C)s3)cc(C)c2c1`, the EC50 was above 200 µM and the IC50 turned out to be 14.5 µM.
In the same order, the values of `S=c1nc[nH]c2c1ccc1[nH]cnc12` are above 18.6 µM and above 18.6 µM.
For the molecule `CCC(C)c1c(N)o[nH]c1=O` (stereo not given), the EC50 was above 200 µM and the concentration for half-maximal inhibition (IC50) is above 200 µM.
With `Clc1ccc(C2NCCNCc3ccccc32)cc1` (stereo not given), the outcome was inactive.
Regarding `NC1N=C(c2ccc(Cl)cc2)C2=C(N1)c1ccccc1CC2` (stereo not given), the EC50 is above 200 µM and the IC50 worked out at 6.76 µM.
In the same order, the values of `NNC(=S)NCCNC(=S)NN` are above 200 µM and above 200 µM.
Taken in the same sequence, the figures for `COC(=O)C(=O)/C=C(\O)c1ccc(Cl)cc1` were above 200 µM and above 200 µM.
In the same order, the values of `COC1CCC(C(C)O)OO1` (stereo not given) are above 200 µM and 33.9 µM.
As to `CCCCCCOC(=O)c1[nH]c(=O)n(CCCCCC)c(=O)c1N`, the EC50 is above 200 µM and the IC50 is 151 µM.
In the same order, the values of `CCOP(=O)(OCC)C(C)(CC)/N=C(\N)NC#N` (stereo not given) are above 200 µM and above 200 µM.
In the same order, the values of `COc1ccc(-c2cc(=O)c3c(O)cc(O)cc3o2)cc1Oc1ccc(-c2cc(=O)c3c(O)cc(O)cc3o2)cc1` are above 200 µM and 2.69 µM.
As for `O=C(O)c1ccc(CS(=O)c2ccc([N+](=O)[O-])cc2)c([N+](=O)[O-])c1` (stereo not given), the EC50 was above 708 µM and the IC50 turned out to be 501 µM.
As for `O=C(CO)C1CC2C=CC1C2` (stereo not given), the result was inactive.
For `CCOC(=O)C/C=C\S[C@@H]1[C@H](NC(=O)COc2ccccc2)C(=O)N1C(C(=O)OCc1ccc([N+](=O)[O-])cc1)=C(C)C`, the EC50 was above 4.37 µM and the IC50 was above 4.37 µM.
As for `O=C(O)c1ccccc1CC(Cc1ccc2c(c1)CCC2)C(=O)O` (stereo not given), the EC50 was above 200 µM and the IC50 was above 200 µM.
As for `COC(=O)N/N=C(\C)C(CN(C)C)C(c1ccccc1)c1c(O)c2ccccc2oc1=O` (stereo not given), the EC50 was above 28.8 µM and the IC50 is above 28.8 µM.
On to `C(=N\NC1=NCCCN1)/c1ccc(-c2cn3cc(/C=N/NC4=NCCCN4)ccc3n2)cc1`, for which the EC50 is above 100 µM and the IC50 was found to be 18.6 µM.
As for `COc1cc(/C=C/c2ccc(O)c(OC)c2)cc(OC)c1`, the EC50 was above 126 µM and the half-maximal inhibitory concentration (IC50) was found to be 2.14 µM.
On to `CCOC(C)OC1CC(n2cc(C)c(=O)[nH]c2=O)OC1CO` (stereo not given), for which the EC50 was above 14.8 µM and the IC50 was found to be 13.2 µM.
Taken in the same sequence, the figures for `O=S(=O)(SSS(=O)(=O)c1ccc(Cl)cc1)c1ccc(Cl)cc1` were above 63.1 µM and above 63.1 µM.
In the same order, the values of `CSc1ccc(-c2cn3ccsc3n2)c(O)c1` are above 85.1 µM and 17.4 µM.
With `CC#CC#C/C=C1\C=CC2(OC=CC2OC(C)=O)O1` (stereo not given), the outcome was inactive.
In the case of `C[C@H](NC(=O)c1ccccc1SC(=O)NCCCCl)C(N)=O`, the EC50 worked out at 3.63 µM and the IC50 is 44.7 µM.
In the case of `COc1cc([N+](=O)[O-])c(S(=O)(=O)O)cc1NS(=O)(=O)c1ccc(C)cc1`, the EC50 was above 200 µM and the IC50 was above 200 µM.
With `O=C1C[C@@H]2[C@@H](c3ccccc3)[C@@H]3C(=O)c4ccccc4NC(=O)[C@H]3[C@]2(O)c2ccccc2N1`, the EC50 was 26.9 µM and the IC50 worked out at 30.9 µM.
In the same order, the values of `Cc1ccc(C)c(N2C(=O)C(=O)c3c(C)ccc(C)c32)c1` are above 200 µM and 33.1 µM.
Regarding `C[C@H](C(=O)O)C(=O)NC(=O)N(Cc1ccccc1)N=O`, the outcome was inactive.
`CC(C)OP(=O)(OC(C)C)C1=NN(c2ccc([N+](=O)[O-])cc2)C(P(=O)(OC(C)C)OC(C)C)=NN1c1ccc([N+](=O)[O-])cc1`: the EC50 was above 2.19 µM and the IC50 was above 2.19 µM.
With `O=C(/C=C/c1ccccc1O)c1cccc2ccccc12`, the EC50 was 93.3 µM and the IC50 was found to be 95.5 µM.
`CC(=O)OCC1OC(c2c(OC(C)=O)cc(C)c3c(=O)cc(/C(C(C)=O)=C(\C)O)oc23)C(OC(C)=O)C(OC(C)=O)C1OC(C)=O` (stereo not given): the EC50 was above 200 µM and the 50% inhibitory concentration (IC50) was above 200 µM.
As to `COc1cc(O)c(C(C)=O)c(O)c1`, the EC50 is above 200 µM and the IC50 turned out to be 19.1 µM.
Taken in the same sequence, the figures for `CCOC(=O)Nc1cc(NC(/C=N/NC(C)=O)C(=O)OCC)c(OC)cc1NC(C)=O` (stereo not given) were above 200 µM and above 200 µM.
Consider `C=C(CCCCCCCCC)CC(=O)SCCNC(=O)CCNC(=O)C(O)C(C)(C)COP(=O)(O)OP(=O)(O)OCC1OC(n2cnc3c(N)ncnc32)C(O)C1OP(=O)(O)O` (stereo not given), for which the EC50 is above 200 µM and the IC50 is 72.4 µM.
